Laboratory results: PubChem BioAssay AID248 (DTP/NCI, 2004)
Where “and” joins values, the source holds several entries; their conditions need not be identical. Identical values can stand only once. Inconclusive results and toxic doses are left out. Rule as the data show it: active = T/C of 150% or more; inactive = T/C below 125%.

Test system: L1210 leukemia ip in BDF1 mice, survival T/C
Experiment: NCI In Vivo Anticancer Drug Screen. Data for tumor model L1210 Leukemia (intraperitoneal) in B6D2F1 (BDF1) mice
Details: endpoint: mean survival time, higher = longer survival
Procedure, shortened: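 Transplanted-tumor mice were given test agent; controls received vehicle only. Survival readings from the two groups were divided (treated over control).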

[1] = dose: 50.0 mg/kg/injection, schedule: Q04DX003 (ip), vehicle: saline
[2] = dose: 100.0 mg/kg/injection, schedule: Q04DX003 (ip), vehicle: saline
[3] = dose: 200.0 mg/kg/injection, schedule: Q04DX003 (ip), vehicle: saline
[4] = dose: 400.0 mg/kg/injection, schedule: Q04DX003 (ip), vehicle: saline
[5] = dose: 100.0 mg/kg/injection, schedule: Q01DX001 (ip), vehicle: saline
[6] = dose: 200.0 mg/kg/injection, schedule: Q01DX001 (ip), vehicle: saline

Measured: T/C

CC(CC(=O)OCC(F)(F)C(F)(F)C(F)(F)C(F)F)CC(=O)OCC(F)(F)C(F)(F)C(F)(F)C(F)F
inactive: dose: 50.0 mg/kg/injection, schedule: Q01DX001 (ip), vehicle: carboxymethylcellulose (CMC) 96 % of control | dose: 100.0 mg/kg/injection, schedule: Q01DX001 (ip), vehicle: carboxymethylcellulose (CMC) 100 % of control | dose: 200.0 mg/kg/injection, schedule: Q01DX001 (ip), vehicle: carboxymethylcellulose (CMC) 96 % of control | dose: 400.0 mg/kg/injection, schedule: Q01DX001 (ip), vehicle: carboxymethylcellulose (CMC) 91 % of control

CCCCN=C([Se])NCCCC
inactive: dose: 15.0 mg/kg/injection, schedule: Q01DX015 (ip), vehicle: carboxymethylcellulose (CMC) 103 % of control | dose: 30.0 mg/kg/injection, schedule: Q01DX015 (ip), vehicle: carboxymethylcellulose (CMC) 96 % of control | dose: 60.0 mg/kg/injection, schedule: Q01DX015 (ip), vehicle: carboxymethylcellulose (CMC) 97 % of control

CC1(C)C=C(C(N)=O)C(C)(C)N1O
inactive: dose: 50.0 mg/kg/injection, schedule: Q01DX009 (ip), vehicle: other 98 % of control | dose: 100.0 mg/kg/injection, schedule: Q01DX009 (ip), vehicle: other 101 % of control | dose: 200.0 mg/kg/injection, schedule: Q01DX009 (ip), vehicle: other 95 % of control

COc1ccc(/C=N\NC(=O)N/N=C/c2ccc(OC)c(Br)c2)cc1Br
inactive: dose: 50.0 mg/kg/injection, schedule: Q04DX002 (ip), vehicle: Klucel (hydroxypropylcellulose) (HPC) 106 % of control | dose: 100.0 mg/kg/injection, schedule: Q04DX002 (ip), vehicle: Klucel (hydroxypropylcellulose) (HPC) 98 % of control and 103 % of control | dose: 200.0 mg/kg/injection, schedule: Q04DX002 (ip), vehicle: Klucel (hydroxypropylcellulose) (HPC) 88 % of control | dose: 400.0 mg/kg/injection, schedule: Q04DX002 (ip), vehicle: Klucel (hydroxypropylcellulose) (HPC) 91 % of control

O=C(O)C(Br)CCCCC(Br)C(=O)O (stereo not given)
inactive: dose: 100.0 mg/kg/injection, schedule: Q01DX001 (ip), vehicle: steriod suspending solution 105 % of control | dose: 200.0 mg/kg/injection, schedule: Q01DX001 (ip), vehicle: steriod suspending solution 97 % of control | dose: 400.0 mg/kg/injection, schedule: Q01DX001 (ip), vehicle: steriod suspending solution 105 % of control

COc1cccc(/C=N\O)c1
inactive: dose: 50.0 mg/kg/injection, schedule: Q01DX009 (ip), vehicle: saline 98 % of control | [1] 95 % of control | dose: 100.0 mg/kg/injection, schedule: Q01DX009 (ip), vehicle: saline 100 % of control | [2] 95 % of control | dose: 200.0 mg/kg/injection, schedule: Q01DX009 (ip), vehicle: saline 96 % of control | [3] 101 % of control | dose: 400.0 mg/kg/injection, schedule: Q01DX009 (ip), vehicle: saline 95 % of control | [4] 95 % of control

CCCCOC(=O)c1ccc(OC(=O)Nc2cc(OC)ccc2OC)cc1
inactive: dose: 100.0 mg/kg/injection, schedule: Q04DX003 (ip), vehicle: saline with Tween-80 95 % of control | dose: 200.0 mg/kg/injection, schedule: Q04DX003 (ip), vehicle: saline with Tween-80 91 % of control | dose: 400.0 mg/kg/injection, schedule: Q04DX003 (ip), vehicle: saline with Tween-80 90 % of control

O=C(O)c1ccc(NCc2cc(=O)[nH]c(=O)[nH]2)cc1
inactive: [2] 101 % of control | [3] 95 % of control | [4] 103 % of control

CCCCCCCNC(C)(C)C(SS)c1ccc(Cl)cc1 (stereo not given)
inactive: dose: 100.0 mg/kg/injection, schedule: Q01DX009 (sc), vehicle: olive oil, sesame oil, peanut oil 102 % of control | dose: 200.0 mg/kg/injection, schedule: Q01DX009 (sc), vehicle: olive oil, sesame oil, peanut oil 100 % of control | dose: 400.0 mg/kg/injection, schedule: Q01DX009 (sc), vehicle: olive oil, sesame oil, peanut oil 101 % of control

CCc1cccc(CC)c1NC(=O)Nc1ccc(Br)cc1
inactive: [1] 87 % of control | [5] 86 % of control | [2] 87 % of control | [6] 89 % of control | [3] 92 % of control

O=C(/C=C/c1ccc([N+](=O)[O-])cc1)Nc1cccc(S(=O)(=O)F)c1
inactive: [5] 107 % of control | [6] 112 % of control | dose: 400.0 mg/kg/injection, schedule: Q01DX001 (ip), vehicle: saline 101 % of control

NCC1=NCCN1
inactive: dose: 25.0 mg/kg/injection, schedule: Q04DX002 (ip), vehicle: saline 93 % of control | dose: 50.0 mg/kg/injection, schedule: Q04DX002 (ip), vehicle: saline 97 % of control | dose: 100.0 mg/kg/injection, schedule: Q04DX002 (ip), vehicle: saline 101 % of control | dose: 200.0 mg/kg/injection, schedule: Q04DX002 (ip), vehicle: saline 93 % of control

Nc1ccccc1C(=O)ONC(=O)c1ccccc1
inactive: dose: 100.0 mg/kg/injection, schedule: Q04DX003 (ip), vehicle: carboxymethylcellulose (CMC) 97 % of control | dose: 200.0 mg/kg/injection, schedule: Q04DX003 (ip), vehicle: carboxymethylcellulose (CMC) 93 % of control | dose: 400.0 mg/kg/injection, schedule: Q04DX003 (ip), vehicle: carboxymethylcellulose (CMC) 92 % of control

O=C(Nc1cccc(-c2nc3ccccc3[nH]2)c1)c1ccc(C(=O)Nc2cccc(-c3nc4ccccc4[nH]3)c2)cc1
inactive: dose: 15.0 mg/kg/injection, schedule: Q01DX Z (ip), vehicle: carboxymethylcellulose (CMC) 91 % of control | dose: 30.0 mg/kg/injection, schedule: Q01DX Z (ip), vehicle: carboxymethylcellulose (CMC) 90 % of control | dose: 60.0 mg/kg/injection, schedule: Q01DX Z (ip), vehicle: carboxymethylcellulose (CMC) 87 % of control | dose: 120.0 mg/kg/injection, schedule: Q01DX Z (ip), vehicle: carboxymethylcellulose (CMC) 86 % of control | dose: 125.0 mg/kg/injection, schedule: Q01DX Z (ip), vehicle: water 95 % of control | dose: 250.0 mg/kg/injection, schedule: Q01DX Z (ip), vehicle: water 96 % of control | dose: 500.0 mg/kg/injection, schedule: Q01DX Z (ip), vehicle: water 112 % of control

Clc1ccc2c(c1)C1=NCCCN1c1cc(Cl)ccc1-2
inactive: dose: 2.5 mg/kg/injection, schedule: Q01DX009 (ip), vehicle: saline 105 % of control | dose: 2.5 mg/kg/injection, schedule: Q04DX002 (ip), vehicle: saline 100 % of control | dose: 2.5 mg/kg/injection, schedule: Q04DX003 (ip), vehicle: Klucel (hydroxypropylcellulose) (HPC) 102 % of control | dose: 5.0 mg/kg/injection, schedule: Q01DX009 (ip), vehicle: saline 97 % of control | dose: 5.0 mg/kg/injection, schedule: Q04DX002 (ip), vehicle: saline 96 % of control | dose: 5.0 mg/kg/injection, schedule: Q04DX003 (ip), vehicle: Klucel (hydroxypropylcellulose) (HPC) 104 % of control | dose: 10.0 mg/kg/injection, schedule: Q01DX009 (ip), vehicle: saline 97 % of control | dose: 10.0 mg/kg/injection, schedule: Q04DX002 (ip), vehicle: saline 111 % of control | dose: 10.0 mg/kg/injection, schedule: Q04DX003 (ip), vehicle: Klucel (hydroxypropylcellulose) (HPC) 104 % of control | dose: 20.0 mg/kg/injection, schedule: Q04DX003 (ip), vehicle: Klucel (hydroxypropylcellulose) (HPC) 91 % of control

Oc1cccc(C2=NNC(c3cccc(O)c3)=NN2)c1
inactive: dose: 100.0 mg/kg/injection, schedule: Q04DX003 (ip), vehicle: gum acacia 93 % of control | dose: 200.0 mg/kg/injection, schedule: Q04DX003 (ip), vehicle: gum acacia 89 % of control | dose: 400.0 mg/kg/injection, schedule: Q04DX003 (ip), vehicle: gum acacia 86 % of control

O=[N+]([O-])c1ccc(Oc2ccc(C3N(c4ccccc4)CCN3c3ccccc3)cc2)c([N+](=O)[O-])c1
inactive: dose: 25.0 mg/kg/injection, schedule: Q01DX009 (ip), vehicle: water 91 % of control | dose: 50.0 mg/kg/injection, schedule: Q01DX009 (ip), vehicle: water 91 % of control | dose: 100.0 mg/kg/injection, schedule: Q01DX009 (ip), vehicle: water 86 % of control | dose: 200.0 mg/kg/injection, schedule: Q01DX009 (ip), vehicle: water 91 % of control | dose: 400.0 mg/kg/injection, schedule: Q01DX009 (ip), vehicle: water 86 % of control

Cc1cc(C#N)n(O)c1
inactive: dose: 50.0 mg/kg/injection, schedule: Q01DX009 (ip), vehicle: Klucel (hydroxypropylcellulose) (HPC) 103 % of control | dose: 100.0 mg/kg/injection, schedule: Q01DX009 (ip), vehicle: Klucel (hydroxypropylcellulose) (HPC) 100 % of control | dose: 200.0 mg/kg/injection, schedule: Q01DX009 (ip), vehicle: Klucel (hydroxypropylcellulose) (HPC) 101 % of control

O=C(Nc1ccc(Cl)c(C(F)(F)F)c1)OCc1ccco1
inactive: dose: 100.0 mg/kg/injection, schedule: Q01DX009 (ip), vehicle: gum acacia 93 % of control | dose: 200.0 mg/kg/injection, schedule: Q01DX009 (ip), vehicle: gum acacia 100 % of control | dose: 400.0 mg/kg/injection, schedule: Q01DX009 (ip), vehicle: gum acacia 92 % of control
